Reference: the OPERA property sets (Mansouri et al. 2018)

Point of comparison: CCC(C(N)=O)n1nnc2ccccc21 (centres undefined), logP 0.88. Against it:
- c1ccc2nn(C3CCCC3)nc2c1 — higher, 3.04
- CCOC(=O)C(C)n1nnc2ccccc21 (centres undefined) — higher, 1.87
- CCCCC(C(=O)OCC)n1nc2ccccc2n1 (centres undefined) — higher, 3.88
- CCOC(=O)CC(C)n1nc2ccccc2n1 (centres undefined) — higher, 2.7
- CCOC(=O)CC(C)n1nnc2ccccc21 (centres undefined) — higher, 2.27
- CCC(C(N)=O)n1nc2ccccc2n1 (centres undefined) — higher, 1.25
- CCCC(C(=O)OCC)n1nc2ccccc2n1 (centres undefined) — higher, 3.38
- CCOC(=O)C(C)n1nc2ccccc2n1 (centres undefined) — higher, 2.38
- CCCC(C(N)=O)n1nc2ccccc2n1 (centres undefined) — higher, 1.75
- c1ccc2c(c1)nnn2C1CCCC1 — higher, 2.61
- CC(C)(C(=O)O)n1nc2ccccc2n1 — lower, 0.64
- CCCCC(C(N)=O)n1nc2ccccc2n1 (centres undefined) — higher, 2.28
- CC(CCC(=O)O)n1nnc2ccccc21 (centres undefined) — lower, 0.15
- CC(C)(C(=O)O)n1nnc2ccccc21 — lower, -0.2
- CCCC(C(N)=O)n1nnc2ccccc21 (centres undefined) — higher, 1.38
- CC(C)(C(N)=O)n1nc2ccccc2n1 — higher, 1.16
- CCOC(=O)C(CC)n1nc2ccccc2n1 (centres undefined) — higher, 2.88
- CC(CCC(=O)O)n1nc2ccccc2n1 (centres undefined) — within 0.2 log units, 0.69
- CCCCC(C(N)=O)n1nnc2ccccc21 (centres undefined) — higher, 1.88
- CC(CC(=O)O)n1nnc2ccccc21 (centres undefined) — lower, -0.2
- CCCC(C(=O)OCC)n1nnc2ccccc21 (centres undefined) — higher, 2.82
- CC(C(N)=O)n1nc2ccccc2n1 (centres undefined) — within 0.2 log units, 0.86
- CC(C)(C(N)=O)n1nnc2ccccc21 — within 0.2 log units, 0.76
- c1ccc2nn(C3CCCCC3)nc2c1 — higher, 3.63
- CC(CCC(N)=O)n1nc2ccccc2n1 (centres undefined) — higher, 1.35
- CCOC(=O)C(CC)n1nnc2ccccc21 (centres undefined) — higher, 2.34
- c1ccc2c(c1)nnn2C1CCCCC1 — higher, 3.11
- CCCCC(C(=O)OCC)n1nnc2ccccc21 (centres undefined) — higher, 3.32
